Test results: PMC8228819, “Comparison of a Short Linear Antimicrobial Peptide with Its Disulfide-Cyclized and Cyclotide-Grafted Variants against Clinically Relevant Pathogens” (Microorganisms, 2021)
Values after ≈ are worked out from the molar mass of the structure shown. Read-outs that look alike come from different tables or passages of the source. Marks after values point to notes of the source that are not given here. Bridge positions count the residues as written; N and C are the ends. Square brackets hold non-standard residues; d marks the D form. Ends that are not written are not given here. Peptide text beside a SMILES is read from it. βAla = NCCC(=O)O

Experiments:
[1] = system: Staphylococcus aureus, epidemic methicillin-resistant EMRSA-15; type: cell-based
Procedure: (§1) The following strains were used in this study: Escherichia coli, ATCC 25922, Staphylococcus aureus, epidemic methicillin-resistant EMRSA-15, Klebsiella pneumoniae, clinical isolate from St George’s, University of London (SGUL, London, UK), Acinetobacter baumannii, clinical isolate from SGUL, Pseudomonas aeruginosa, PA01 wildtype strain, and Enterococcus faecalis, vancomycin-resistant ATCC 51299.
(§2) The minimal inhibitory concentration (MIC) was determined in a microdilution assay using Mueller–Hinton (MH) or Brain Heart Infusion Broth (BHI) broth following a previously published protocol. Briefly, a twofold serial dilution of the antibiotics and peptides were prepared and added to a bacteria solution, resulting in 2–5 10^5 CFU/mL. The microtiter plates (polypropylene, Corning, Corning, NY, USA) were incubated for 18 h at 37 °C and MICs were taken visually. Based on our experience with proline rich peptides, their low activity in Mueller–Hinton broth, and their strong activity in diluted broth, we decided to also measure the activity of the peptide set in a 1/5 dilution of the broth. MICs in the presence of serum were established using human serum (Zen-Bio, Durham, NC, USA) and heat-inactivated serum (Sigma-Aldrich, St. Louis, MO, USA). A total of 20% (v/v) of each human serum was mixed with bacterial solution and added to predetermined concentrations of antibiotics and peptides, resulting in a final 10% (v/v) concentration of serum and 2–5 × 10^5 bacteria.

[2] = system: ESKAPE pathogens (E. faecalis, S. aureus, K. pneumoniae, A. baumannii, P. aeruginosa, E. coli); assay: MIC summary over the ESKAPE panel; type: cell-based
Procedure: as §1, §2

[3] = system: Acinetobacter baumannii, clinical isolate from SGUL; type: cell-based; details: for MIC: triplicate, modal value
Procedure: as §1, §2

[4] = system: Klebsiella pneumoniae, clinical isolate from St George's, University of London; type: cell-based
Procedure: as §1, §2

[5] = system: Enterococcus faecalis, vancomycin-resistant ATCC 51299; type: cell-based
Procedure: as §1, §2

[6] = system: Pseudomonas aeruginosa, PA01 wildtype strain; type: cell-based; details: for MIC: triplicate, modal value
Procedure: as §1, §2

[7] = system: Escherichia coli, ATCC 25922; type: cell-based; details: for MIC: triplicate, modal value
Procedure: as §1, §2

Serum stability assay = type: in vitro ADME, human; details: for half-life at 100 μM: 100% human serum (Sigma-Aldrich, human male AB plasma), 100 μM peptide, 0-24 h, TFA precipitation, triplicates; for Peptide state after one hour in human serum: 1 h
Procedure: (§3) Serum stability assays were performed in 100% human serum (Sigma-Aldrich, St. Louis MO, USA, human male AB plasma). Serum was centrifuged to remove lipids and incubated with the peptides at 100 μM for 0, 0.5, 1, 3, 6, and 24 h at 37 °C. Serum proteins were precipitated by adding 3 μL of TFA to 40 μL of peptide – serum sample (final TFA 7%). The remaining supernatant was diluted with 50:50 solvent A/B. The amount of peptide remaining (%) was quantified by UPLC-MS analysis. For pH stability experiments, peptides were incubated at a concentration of 20 μM at pH 1.2 and 7.5 for 24 h, and stability was monitored by UPLC analysis.

pH stability = type: physicochemical; details: 20 μM, pH 1.2 and 7.5, 24 h, UPLC
Procedure: as §3

E. coli (ATCC 25922) = assay: Time kill assay; type: cell-based, Escherichia coli; details: 1/5 (20%) MH broth, 3 times the MIC, 1 × 10^6 CFU/mL, 37 °C, 10-1440 min, three experiments
Procedure: Overnight culture of E. coli (ATCC 25922) was diluted for approximately two hours to achieve logarithmic phase. The logarithmic phase inoculum was then adjusted to 1 × 10^6 CFU/mL in 20% MH broth. Within a 1.5 mL microfuge tube (STARLAB (UK) Limited, Milton Keynes, UK), the peptides were added to the inoculum at a concentration that was threefold the MIC against E coli. The tubes were placed in a shaking incubator (225 rpm) at 37 °C. At predetermined time points between 0 and 24 h: 10, 20, 40, 60, 120, 240, and 1440 min for the peptides, and for the untreated control: 0, 60, 120, 240, and 1080 min, 100 µl samples were taken out. Furthermore, a 1 in 10 dilution series using sterile 10 mM Tris buffer (pH 7.5) was performed using the removed sample, then 5 × 5 µL were spotted for each dilution onto MH agar plates and incubated at 37 °C. The next day, the colonies were counted and the colony forming units, CFU/mL for each time point, were determined.

E. coli = details: cited from earlier work
From the text: (§4) Several naturally occurring cyclotide sequences have been proposed to have antimicrobial activity. However, the cyclotides tested in that study were synthetically made and had rather weak activity against a range of common pathogenic bacteria, including Escherichia coli and Staphylococcus aureus, but were only active in low salt media, losing all activity under physiological conditions. A number of other studies have also reported antibacterial activity for some natural cyclotides or synthetic derivatives of them. For example, fractions comprised of cyclotid ...

[8] = system: S. enterica serovar Typhimurium LT2; details: cited from earlier work
From the text: as §4

Staphylococcus aureus = details: cited from earlier work
From the text: as §4

[9] = MH, single measurement (asterisk)
[10] = ratio of MICs (fold loss of activity in serum)
[11] = 1/5 MH + 10% human serum, triplicate, modal value
[12] = 1/5 MH, triplicate, modal value
[13] = 1/5 MH + 10% heat inactivated human serum, triplicate, modal value
[14] = MH + 10% human serum, triplicate, modal value
[15] = 100% human serum, 100 μM, 37 °C, UPLC-MS

CC[C@H](C)[C@H](NC(=O)CN)C(=O)NCC(=O)N[C@@H](C)C(=O)N[C@H](C(=O)N[C@@H](CC(C)C)C(=O)N[C@@H](CCCCN)C(=O)N[C@H](C(=O)N[C@@H](CC(C)C)C(=O)N[C@H](C(=O)N[C@H](C(=O)NCC(=O)N[C@@H](CC(C)C)C(=O)N1CCC[C@H]1C(=O)N[C@@H](C)C(=O)N[C@@H](CC(C)C)C(=O)N[C@H](C(=O)N[C@@H](CO)C(=O)N[C@@H](Cc1c[nH]c2ccccc12)C(=O)N[C@H](C(=O)N[C@@H](CCCCN)C(=O)N[C@@H](CCCNC(=N)N)C(=O)N[C@@H](CCCCN)C(=O)N[C@@H](CCCNC(=N)N)C(=O)N[C@@H](CCC(N)=O)C(=O)N[C@@H](CCC(N)=O)C(N)=O)[C@@H](C)CC)[C@@H](C)CC)[C@@H](C)O)[C@@H](C)O)C(C)C)C(C)C [Melittin, reference compound]
MIC ([1]; 1/5 MH + 10% heat inactivated human serum, single measurement (asterisk)): 1.4 µM
MIC ([1]; 1/5 MH + 10% human serum, single measurement (asterisk)): 1.4 µM
MIC ([1]; 1/5 MH, single measurement (asterisk)): 0.7 µM (≈ 1.99 µg/mL)
MIC [1, 9]: 4 µM (≈ 11.4 µg/mL)

CC[C@H](C)[C@@H]1NC(=O)[C@@H]2CSSC[C@@H]3NC(=O)[C@H](Cc4c[nH]c5ccccc45)NC(=O)[C@H]([C@@H](C)CC)NC(=O)[C@H]([C@@H](C)CC)NC(=O)[C@H](Cc4c[nH]c5ccccc45)NC(=O)[C@H](CCCNC(=N)N)NC(=O)[C@H](C(C)C)NC(=O)[C@H](CCCNC(=N)N)NC(=O)[C@H](CCCNC(=N)N)NC(=O)[C@H](CCCCN)NC(=O)[C@@H]4CSSC[C@H](NC(=O)[C@H](CC(=O)O)NC(=O)[C@H](CO)NC(=O)[C@H](CC(=O)O)NC(=O)[C@H](CCCNC(=N)N)NC(=O)[C@H](CCCNC(=N)N)NC(=O)[C@H](CSSC[C@H](NC1=O)C(=O)N[C@@H](CCCNC(=N)N)C(=O)NCC(=O)N[C@@H](CC(N)=O)C(=O)NCC(=O)N[C@@H](Cc1ccc(O)cc1)C(=O)N4)NC(=O)[C@H](CCCCN)NC(=O)[C@H](CCCCN)NC(=O)[C@H](CC(C)C)NC(=O)[C@H]([C@@H](C)CC)NC(=O)[C@H](CCCCN)NC(=O)[C@@H]1CCCN1C3=O)C(=O)N1CCC[C@H]1C(=O)NCC(=O)N[C@@H](C)C(=O)N2 [[L6-optP7]Mco] (cyclo(ACICRGNGYCKRRVRWIIWCPKILKKCRRDSDCPG); disulfide 2-20, 4-27, 10-33)
Average activity decrease, lower than for c-opt7 [2]: 1.6 fold
Average activity decrease factor compared to linear optP7 ([2]; all conditions of Table 3): 15.5 fold
Antimicrobial activity in broth (in words) ([2]; undiluted broth): medium to weak
Ratio of MIC of cyclized peptide version over MIC of the linear peptide optP7 ([3]; 1/5 MH): 5
Ratio of MIC of cyclized peptide version over MIC of the linear peptide optP7 ([3]; 1/5 MH + 10% human serum): 10.3
Improvement of activity when diluting the broth ([3]; 1/5 MH versus MH): 15.5 fold
Ratio of MIC of cyclized peptide version over MIC of the linear peptide optP7 ([3]; MH): 41.3
Ratio 1/5 MH + 10% serum/ 1/5MH ([3]; ratio of MICs): 7.75
Ratio of MIC of cyclized peptide version over MIC of the linear peptide optP7 ([4]; 1/5 MH): 20.7
Improvement of activity when diluting the broth ([4]; 1/5 MH versus MH): 2 fold
Ratio of MIC of cyclized peptide version over MIC of the linear peptide optP7 ([4]; MH): 41.3
Ratio of MIC of cyclized peptide version over MIC of the linear peptide optP7 ([5]; 1/5 BHI): 18.8
Ratio of MIC of cyclized peptide version over MIC of the linear peptide optP7 ([5]; 1/5 BHI + 10% human serum): 2.6
Ratio 1/5 BHI + 10% serum/ 1/5BHI ([5]; ratio of MICs): 4.1
Ratio of MIC of cyclized peptide version over MIC of the linear peptide optP7 ([6]; 1/5 MH): 10.0
Ratio of MIC of cyclized peptide version over MIC of the linear peptide optP7 ([6]; 1/5 MH + 10% human serum): 1.3
Improvement of activity when diluting the broth ([6]; 1/5 MH versus MH, Table 2 data): 7.8 fold
Improvement of activity in diluted media ([6]; 1/5 MH versus MH, fractions of Table 1): 7.8 fold
Ratio of MIC of cyclized peptide version over MIC of the linear peptide optP7 ([6]; MH): 20.6
Ratio 1/5 MH + 10% serum/ 1/5MH [6, 10]: 1
Ratio of MIC of cyclized peptide version over MIC of the linear peptide optP7 ([7]; 1/5 MH + 10% human serum): 18.8
Improvement of activity when diluting the broth ([7]; 1/5 MH versus MH): 31 fold
Ratio of MIC of cyclized peptide version over MIC of the linear peptide optP7 ([7]; 1/5 MH, average used for an MIC range): 3.3
Ratio of MIC of cyclized peptide version over MIC of the linear peptide optP7 ([7]; MH): 77.5
Ratio 1/5 MH + 10% serum/ 1/5MH [7, 10]: 7.5
Ratio 1/5 MH + 10% serum/ 1/5MH ([1]; ratio of MICs): >7.8
Increase in stability against degradation in 100% human serum compared to the linear variant (Serum stability assay; 100% human serum): 33 fold
remaining at 24 h, 100 μM (Serum stability assay; male, 100% human serum (human male AB plasma), 100% human serum, 100 μM, 37 °C, 24 h, UPLC-MS, read-out: Peptide still present after 24 h in human serum): ~30%
pH stability (pH stability): minor signs of degradation after 24 h at low pH
Kinetics of killing (E. coli (ATCC 25922)): drastically slower acting

CC[C@H](C)[C@@H]1NC(=O)[C@H](Cc2c[nH]c3ccccc23)NC(=O)[C@H](CCCNC(=N)N)NC(=O)[C@H](C(C)C)NC(=O)[C@H](CCCNC(=N)N)NC(=O)[C@H](CCCNC(=N)N)NC(=O)[C@H](CCCCN)NC(=O)CCNC(=O)CCNC(=O)[C@@H](N)CSSC[C@@H](C(=O)O)NC(=O)CCNC(=O)CCNC(=O)[C@H](Cc2c[nH]c3ccccc23)NC(=O)[C@H]([C@@H](C)CC)NC1=O [c-optP7] (H-C[βAla][βAla]KRRVRWIIW[βAla][βAla]C-OH; disulfide 1-15)
MIC ([3]; 1/5 MH + 10% human serum): 71 µM
MIC ([3]; 1/5 MH): 4 µM (≈ 7.2 µg/mL)
MIC [4, 11]: 142 µM
MIC [4, 12]: 71 µM (≈ 128 µg/mL)
MIC [4, 9]: >142 * µM
MIC ([5]; 1/5 BHI + 10% human serum, triplicate, modal value): >142 µM
MIC ([5]; 1/5 BHI, triplicate, modal value): 18 µM (≈ 32.4 µg/mL)
MIC ([5]; BHI, single measurement (asterisk)): >142 * µM
MIC ([6]; 1/5 MH + 10% human serum): 35 µM
MIC ([6]; 1/5 MH): 9 µM (≈ 16.2 µg/mL)
MIC ([6]; MH + 10% human serum): >142 µM
MIC ([6]; MH, microdilution, 18 h 37 °C, visual): 142 µM (≈ 256 µg/mL)
MIC ([7]; 1/5 MH + 10% heat inactivated human serum): 35 µM
MIC ([7]; 1/5 MH + 10% human serum): 18 µM
MIC ([7]; 1/5 MH): 4 to 9 µM
MIC ([7]; MH + 10% human serum): >142 µM
MIC ([7]; MH): 71 µM (≈ 128 µg/mL)
MIC [1, 13]: >142 µM
MIC [1, 11]: >142 µM
MIC [1, 12]: 18 µM (≈ 32.4 µg/mL)
MIC [1, 14]: >142 µM
MIC ([1]; MH, triplicate, modal value): 142 µM (≈ 256 µg/mL)
half-life at 100 μM (Serum stability assay; 37 °C, UPLC-MS): 9 min
Peptide state after one hour in human serum (Serum stability assay; [15]): fully degraded
pH stability (pH stability): exceptional stability over 24 h

KRRVRWIIW-NH2 [optP7]
MIC ([4]; clinical isolate from St George's, University of London, 18 h): 1.5 µM
MIC ([5]; ATCC 51299, 18 h): 0.8 µM
MIC [1, 13]: 6 µM
MIC [1, 11]: 6 µM
MIC [1, 12]: 1.5 µM
MIC [1, 14]: 49 µM
MIC ([1]; MH, triplicate, modal value): 6 µM
half-life at 100 μM (Serum stability assay; 37 °C, UPLC-MS): 13 min
Peptide state after one hour in human serum (Serum stability assay; [15]): fully degraded
pH stability (pH stability): exceptional stability over 24 h

cycloviolacin O2
MIC (E. coli): 2 µM
MIC [8]: ~9 µM
MIC (Staphylococcus aureus): > 50 µM
